Reference: PMC4999848 (Toxins, 2016)

Legend:
trypsin = biological target: T1, trypsin (Sus scrofa, UniProt P00761); experiment: Deacetylation of 3/15ADON by trypsin; format: in vitro ADME, porcine; conditions: trypsin 0.35 mg/mL, PBS pH 7.4, 37 °C, substrate 100 μM
T1 construct: purchased Sigma-Aldrich
Procedure: (§1) Stock solutions of DON, 3ADON and 15ADON at 2 mg/mL were prepared in absolute ethanol and stored at −20 °C. For deacetylation assay, 3- or 15ADON were incubated with cells, explants, bacteria or digestive enzymes after being diluted in PBS^++ at a final concentration of 100 μM. PBS^++ solution containing only ethanol (at 1.5% final concentration) or DON (at 100 μM) were used in parallel as negative and positive control, respectively. For cells and explants, deacetylation assay take place in 6-well plates, wells being filled with 2 mL of PBS^++ containing either ethanol, DON, 3- or 15ADON. For fecal bacteria and digestive enzyme assay, deacetylation assay was conducted in 2 mL Eppendorf tubes filled with 1.5 mL of PBS^++ containing either ethanol, DON, 3- or 15ADON. In vitro intestinal digestion by luminal enzymes was performed using porcine enzymes from Sigma-Aldrich and physiological conditions. […] In all cases, aliquots of the reaction solution were collected immediately (i.e., “time zero” sample) or after the indicated time period at 37 °C and analyzed by HPLC. […]
(§2) Deacetylation was monitoring both in term of disappearance of 3- or 15ADON and formation of DON. […] Quantification was based on calibration with the corresponding standard using Millinium Software (Waters, Saint Quentin Falavier, France).

pepsin = biological target: T2, pepsin (Sus scrofa, UniProt P00791); experiment: Deacetylation of 3/15ADON by pepsin; format: in vitro ADME, porcine; conditions: for Disappearance of 3/15ADON, specific activity: pepsin 1.6 mg/mL, HCl 10 mM pH 2.3, 37 °C, substrate 100 μM; for Contribution to total deacetylation activity: Pepsin: percentage of sum of specific activities (Figure 8)
T2 construct: purchased Sigma-Aldrich
Procedure: (§3) Stock solutions of DON, 3ADON and 15ADON at 2 mg/mL were prepared in absolute ethanol and stored at −20 °C. For deacetylation assay, 3- or 15ADON were incubated with cells, explants, bacteria or digestive enzymes after being diluted in PBS^++ at a final concentration of 100 μM. PBS^++ solution containing only ethanol (at 1.5% final concentration) or DON (at 100 μM) were used in parallel as negative and positive control, respectively. For cells and explants, deacetylation assay take place in 6-well plates, wells being filled with 2 mL of PBS^++ containing either ethanol, DON, 3- or 15ADON. For fecal bacteria and digestive enzyme assay, deacetylation assay was conducted in 2 mL Eppendorf tubes filled with 1.5 mL of PBS^++ containing either ethanol, DON, 3- or 15ADON. In vitro intestinal digestion by luminal enzymes was performed using porcine enzymes from Sigma-Aldrich and physiological conditions. Briefly, 3- or 15ADON were incubated with pepsin (at 1.6 mg/mL corresponding to 900 U/mL), trypsin (at 0.35 mg/mL corresponding to 6000 U/mL), pancreatic lipase (at 0.75 mg/mL corresponding to 18 U/mL) or pancreatin (at 1.23 mg/mL, lipase activity >10 U/mL, protease activity >100 U/mL, amylase activity >100 U/mL). Except for pepsin for which the digestion was conducted in HCl solution at 10 mM (pH 2.3), in vitro digestion was performed in PBS^++ (pH 7.4). Finally, deacetylation assay was also performed with commercial pooled S9 fractions from human liver, small intestine and kidneys as well as with pure recombinant human CES1 and CES2. S9 fractions and CES1/2 were used at 0.1 mg/mL and 5 μg/mL (corresponding to CES activity >20 U/mL), respectively. In all cases, aliquots of the reaction solution were collected immediately (i.e., “time zero” sample) or after the indicated time period at 37 °C and analyzed by HPLC. […] In all cases, the experiments were conducted in triplicate (n = 3).
Deacetylation was monitoring both in term of disappearance of 3- or 15ADON and formation of DON. Measurement of DON, 3ADON and 15ADON concentrations was performed by reversed-phase HPLC using Waters Alliance System equipped with a Waters 2690 XE separation module and a Waters 996 photodiode array detector (Waters, Saint Quentin Falavier, France). The separation was achieved by mean of a LiChroCart column (125 mm × 4 mm) packed with 5 μm RP-18 Purospher gel (Merck, Darmstadt, Germany) and equipped with a LiChroCart precolumn (4 mm × 4 mm) packed with the same material (Merck). The precolumn and column were placed in room temperature. […] Quantification was based on calibration with the corresponding standard using Millinium Software (Waters, Saint Quentin Falavier, France).

pancreatic lipase = biological target: T3, pancreatic lipase (Sus scrofa, UniProt P00591); experiment: Deacetylation of 3/15ADON by pancreatic lipase; format: in vitro ADME, porcine; conditions: lipase 0.75 mg/mL, PBS pH 7.4, 37 °C, substrate 100 μM
T3 construct: purchased Sigma-Aldrich
Procedure: as §1, §2

human fecal bacteria = experiment: Deacetylation of 3/15ADON by human fecal bacteria; format: in vitro ADME; conditions: for Disappearance of 3/15ADON, specific activity: fecal bacteria, anaerobic, 37 °C, substrate 100 μM; for % of deacetylation: human fecal bacteria; for Contribution to total deacetylation activity: Bacteria: percentage of sum of specific activities (Figure 8)
Procedure: The whole procedure involving fecal bacteria (including the use of fecal bacteria for the deacetylation assay) was performed in an anaerobic cabinet (Coy Laboratory Products, Grass Lake, MI, USA). Human fecal bacteria were isolated from three volunteers (men) working in the department, 40–50 years of age. Stools were collected fresh in a sterile container and were immediately introduced into the anaerobic cabinet. Feces samples were taken by pushing a cut-off disposal 1 mL pipette tip into the inner part of the stools. Samples were then mechanically suspended in 9 mL of degassed PBS^++. Homogenates were allowed to decant for ten minutes to eliminate insoluble matter, and supernatants (1 mL aliquots) were transferred to sterile Eppendorf tubes and used for deacetylation assay.
as §3
Deacetylation was monitoring both in term of disappearance of 3- or 15ADON and formation of DON. Measurement of DON, 3ADON and 15ADON concentrations was performed by reversed-phase HPLC using Waters Alliance System equipped with a Waters 2690 XE separation module and a Waters 996 photodiode array detector (Waters, Saint Quentin Falavier, France). The separation was achieved by mean of a LiChroCart column (125 mm × 4 mm) packed with 5 μm RP-18 Purospher gel (Merck, Darmstadt, Germany) and equipped with a LiChroCart precolumn (4 mm × 4 mm) packed with the same material (Merck). The precolumn and column were placed in room temperature. The elution procedure was carried out at 0.7 mL·min^−1 by a methanol–water solvent, using the following conditions: 40% methanol during 2 min followed by an increase in methanol to 50% at 2.1 min.

T2 sequence (P00791 60-385): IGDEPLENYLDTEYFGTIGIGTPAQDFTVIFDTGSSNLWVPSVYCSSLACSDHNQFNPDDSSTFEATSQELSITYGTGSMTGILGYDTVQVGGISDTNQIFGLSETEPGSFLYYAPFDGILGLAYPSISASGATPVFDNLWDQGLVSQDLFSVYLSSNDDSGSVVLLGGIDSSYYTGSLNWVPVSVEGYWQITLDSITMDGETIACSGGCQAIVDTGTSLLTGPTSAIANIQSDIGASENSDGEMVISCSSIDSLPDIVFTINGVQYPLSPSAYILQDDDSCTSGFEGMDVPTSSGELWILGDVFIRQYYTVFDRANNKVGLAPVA
T3 sequence (P00591 whole entry): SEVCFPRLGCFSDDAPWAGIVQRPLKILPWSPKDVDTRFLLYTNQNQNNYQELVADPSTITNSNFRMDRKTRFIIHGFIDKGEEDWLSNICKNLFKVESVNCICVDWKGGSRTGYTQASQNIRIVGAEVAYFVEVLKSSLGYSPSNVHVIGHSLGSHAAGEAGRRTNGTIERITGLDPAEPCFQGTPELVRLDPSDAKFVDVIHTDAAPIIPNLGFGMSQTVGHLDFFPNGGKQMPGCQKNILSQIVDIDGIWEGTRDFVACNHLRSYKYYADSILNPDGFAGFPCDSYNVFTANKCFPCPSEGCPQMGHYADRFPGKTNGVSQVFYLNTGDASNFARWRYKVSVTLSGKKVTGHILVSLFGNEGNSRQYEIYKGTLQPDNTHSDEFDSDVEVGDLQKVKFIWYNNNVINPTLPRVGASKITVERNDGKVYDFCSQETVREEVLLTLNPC
T1 sequence (P00761 9-231): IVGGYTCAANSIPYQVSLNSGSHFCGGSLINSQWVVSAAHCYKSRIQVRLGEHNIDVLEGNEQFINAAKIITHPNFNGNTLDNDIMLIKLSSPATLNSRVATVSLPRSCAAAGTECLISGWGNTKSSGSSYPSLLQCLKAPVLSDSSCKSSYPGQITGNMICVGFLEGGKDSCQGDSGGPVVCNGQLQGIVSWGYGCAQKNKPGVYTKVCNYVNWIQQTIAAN

SMILES: CC(=O)O[C@@H]1C[C@]2(C)[C@@]3(CO)[C@H](O)C(=O)C(C)=C[C@H]3O[C@H]1[C@@]21CO1 [3ADON, 3-acetyldeoxynivalenol]
- Disappearance of 3/15ADON, specific activity (trypsin): 57 ± 19 pmol/min/mg
- Disappearance of 3/15ADON, specific activity (pepsin): 34 ± 7.5 pmol/min/mg
- Contribution to total deacetylation activity: Pepsin (pepsin): 3%
- Disappearance of 3/15ADON, specific activity (pancreatic lipase): 48 ± 21 pmol/min/mg
- Disappearance of 3/15ADON, specific activity (human fecal bacteria): 34 ± 0.9 pmol/min/mg
- % of deacetylation (human fecal bacteria; 6 h incubation, 100 μM): 22.6% ± 15.9%
- % of deacetylation (human fecal bacteria; 48 h incubation): 82.1% ± 21.9%
- Contribution to total deacetylation activity: Bacteria (human fecal bacteria): 2.6%

SMILES: CC(=O)OC[C@]12[C@H](O)C(=O)C(C)=C[C@H]1O[C@@H]1[C@H](O)C[C@@]2(C)[C@]12CO2 [15ADON, 15-acetyldeoxynivalenol]
- Disappearance of 3/15ADON, specific activity (trypsin): 94 ± 62 pmol/min/mg
- Disappearance of 3/15ADON, specific activity (pepsin): 40 ± 4.5 pmol/min/mg
- Contribution to total deacetylation activity: Pepsin (pepsin): 7%
- Disappearance of 3/15ADON, specific activity (pancreatic lipase): 42 ± 18 pmol/min/mg
- Disappearance of 3/15ADON, specific activity (human fecal bacteria): 5.8 ± 1.3 pmol/min/mg
- % of deacetylation (human fecal bacteria; 6 h incubation, 100 μM): no activity
- % of deacetylation (human fecal bacteria; 48 h incubation): 14.9% ± 3.2%
- Contribution to total deacetylation activity: Bacteria (human fecal bacteria): 0.9%
